Measurements published in patent US7011844B2 (Alza Corporation, priority 1996, dated 2006).

Tests used:
[1] = Description: The experiment was carried out using standard glass diffusion cells which consist of a donor compartment with a 7.5 ml capacity, and a receptor compartment with a 22 ml capacity. A circular piece of epidermis was placed in each diffusion cell (permeation area=2.27 cm^2) in a horizontal position between a lower capped receptor compartment and an upper capped donor compartment. The receptor compartment has both a venting tube (uncapped) and a sampling port (capped). The stratum corneum side of the epidermis faced the donor compartment. An O-ring was positioned between the epidermis and the donor compartment, and a clamp held the compartments together. The receptor solution, 22 ml of 0.001 M phosphoric acid solution, pH 3.2, was added to each receptor compartment. The cells were placed in a temperature controlled water bath shaker at 35° C. and allowed to come to temperature before the donor solution was added.
At each time interval, the receptor solution was removed from the test cell and replaced with an equal volume of fresh receptor solution previously equilibrated at 35° C. […] From the drug concentration and the volume of the receptor solutions, the area of permeation and the time interval, the flux of the drug through the epidermis was calculated as follows: (drug concentration×volume of receptor)/(area×time)=flux (μg/cm^2·hr).
Transdermal fluxes were obtained using human epidermis at 35° C. in standard diffusion cells using the procedure set forth in Example 1. FIG. 6 graphically depicts the results.
Transdermal fluxes were obtained using human epidermis at 35° C. in standard diffusion cells using the procedure set forth in Example 1.

skin = skin irritation on transdermal administration (inventors' finding); assay type: in vivo
Description: According to this preferred embodiment, a pharmaceutically acceptable salt of fluoxetine is coadministered with an anti-irritant, preferably a corticosteroid such as hydrocortisone.
Other salts which provide the necessary flux and irritation levels can be determined in accordance with the principles of the teachings of this invention.

[2] = administered orally as fluoxetine hydrochloride (Prozac), 10 mg or 20 mg daily doses, cited from earlier work

Compound | effect of methyl laurate by itself on fluoxetine flux ([1]; 10% fluoxetine base in oil/petrolatum with 0-10% methyl laurate, FIG. 6) | increase of fluoxetine flux by addition of GML ([1]; 10% fluoxetine base in oil/petrolatum with 2.5-10% GML, FIG. 5) | effect of the combination of methyl laurate and GML on fluoxetine flux ([1]; 10% fluoxetine base in oil/petrolatum with 5% methyl laurate and 0-10% GML, FIG. 7, compared with GML or methyl laurate individually) | skin irritation when administered transdermally (skin; in vivo) | elimination half-life, averaging ([2]; average) | elimination half-life [2] | skin irritation when administered transdermally (skin; transdermal administration, base or salt form as labelled)
CNCCC(Oc1ccc(C(F)(F)F)cc1)c1ccccc1 (racemic) [fluoxetine, (±)-N-methyl-γ-[4-(trifluoromethyl)-phenoxy] benzenepropanamine] | did not significantly increase | two to five fold | synergistic effect | moderately to severely irritating | 48 to 72 h | 24 to 220 h | 
fluoxetine acetate |  |  |  |  |  |  | reduced irritation levels
